Measurements reported in US9346761B2, “Arginine methyltransferase inhibitors and uses thereof” (Epizyme, Inc., priority 2013, dated 2016).
pIC50: −log10 of the molar value. Structures can show the parent of a compound that is named as a salt.

Each molecule was assayed against T1, Human CARM1 (PRMT4) (Homo sapiens, UniProt Q86X55) (assay: CARM1 biochemical assay (3H-SAM Flashplate, peptide substrate)).
T1 construct: Flag-CARM1-His was eluted with 200 ug/ml FLAG peptide in buffer A; made in house; host or cells: HEK 293F cells (BacMam virus, pFastBacMam)
T1 sequence (Q86X55 with tags, fused parts or gaps isoform Q86X55-1): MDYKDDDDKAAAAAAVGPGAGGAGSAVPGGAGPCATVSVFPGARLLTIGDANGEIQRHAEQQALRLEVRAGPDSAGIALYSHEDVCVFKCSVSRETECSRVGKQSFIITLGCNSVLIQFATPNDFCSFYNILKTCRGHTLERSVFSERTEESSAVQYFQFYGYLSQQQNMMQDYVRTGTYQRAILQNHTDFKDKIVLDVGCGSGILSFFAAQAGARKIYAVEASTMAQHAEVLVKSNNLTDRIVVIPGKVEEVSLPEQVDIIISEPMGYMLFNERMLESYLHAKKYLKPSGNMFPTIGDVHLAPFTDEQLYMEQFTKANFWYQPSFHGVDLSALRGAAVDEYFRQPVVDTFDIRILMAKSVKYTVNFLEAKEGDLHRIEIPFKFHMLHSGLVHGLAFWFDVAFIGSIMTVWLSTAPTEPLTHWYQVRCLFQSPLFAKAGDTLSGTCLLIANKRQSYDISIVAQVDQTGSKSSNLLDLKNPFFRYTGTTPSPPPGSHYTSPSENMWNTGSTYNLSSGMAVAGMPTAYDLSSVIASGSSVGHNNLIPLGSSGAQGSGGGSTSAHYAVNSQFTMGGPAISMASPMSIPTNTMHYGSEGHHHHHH
Description: General Materials. S-adenosylmethionine (SAM), S-adenosylhomocysteine (SAH), bicine, Tween20, dimethylsulfoxide (DMSO), bovine skin gelatin (BSG), sodium butyrate and Tris(2-carboxyethyl)phosphine hydrochloride solution (TCEP) were purchased from Sigma-Aldrich at the highest level of purity possible. ^3H-SAM was purchase from American Radiolabeled Chemicals with a specific activity of 80 Ci/mmol. 384-well streptavidin Flashplates were purchased from PerkinElmer.
Substrates. Peptide representative of human histone H3 residues 16-30 was synthesized with an N-terminal linker-affinity tag motif and a C-terminal amide cap by 21st Century Biochemicals.
Protein Expression. Recombinant baculovirus were generated according to Bac-to-Bac kit instructions (Life Technologies). […] Infections were carried out at 37° C. for 48 hours, harvested by centrifugation, and stored at −80° C. for purification.
Protein Purification. […] Column was washed with 500 mM NaCl in buffer A and Flag-CARM1-His was eluted with 200 ug/ml FLAG peptide in buffer A. Pooled fractions were dialyzed in 20 mM Tris, 150 mM NaCl, 5% glycerol and 1 mM DTT, pH 7.8.
General Procedure for CARM1 Enzyme Assays on Peptide Substrates. The assays were all performed in a buffer consisting of 20 mM Bicine (pH=7.6), 1 mM TCEP, 0.005% BSG, and 0.002% Tween 20, prepared on the day of use. […] DMSO (1 ul) was added to Columns 11, 12, 23, 24, rows A-H for the maximum signal control and 1 ul of SAH, a known product and inhibitor of CARM1, was added to columns 11, 12, 23, 24, rows I-P for the minimum signal control. A cocktail (40 ul) containing the CARM1 enzyme was added by Multidrop Combi (Thermo-Fisher). The compounds were allowed to incubate with CARM1 for 30 min at room temperature, then a cocktail (10 ul) containing ^3H-SAM and peptide was added to initiate the reaction (final volume=51 ul). […] The assays were stopped by the addition of non-radiolabeled SAM (10 ul) to a final concentration of 300 uM, which dilutes the ^3H-SAM to a level where its incorporation into the peptide substrate is no longer detectable. 50 ul of the reaction in the 384-well polypropylene plate was then transferred to a 384-well Flashplate and the biotinylated peptides were allowed to bind to the streptavidin surface for at least 1 hour before being washed once with 0.1% Tween20 in a Biotek ELx405 plate washer. The plates were then read in a PerkinElmer TopCount plate reader to measure the quantity of ^3H-labeled peptide bound to the Flashplate surface, measured as disintegrations per minute (dpm) or alternatively, referred to as counts per minute (cpm).
Where dpm=disintegrations per minute, cmpd=signal in assay well, and min and max are the respective minimum and maximum signal controls.
Where top and bottom are the normally allowed to float, but may be fixed at 100 or 0 respectively in a 3-parameter fit. The Hill Coefficient normally allowed to float but may also be fixed at 1 in a 3-parameter fit. Y is the % inhibition and X is the compound concentration.

Row | SMILES | pIC50
1 | CNCCN(C)Cc1cn(C2CC2)nc1-c1ccc(F)cc1 [Compound 13] | 5.52 to 6.00
2 | CNCCN(C)Cc1cnn(C2CC2)c1-c1ccc(F)cc1 [Compound 14] | 6.00 to 7.00
3 | CNCCN(C)Cc1cn(C(C)C)nc1-c1ccc(F)cc1 [Compound 15] | 5.00 to 5.52
4 | CNCCN(C)Cc1cnn(C(C)C)c1-c1ccc(F)cc1 [Compound 16] | 5.00 to 5.52
5 | CNCCN(C)Cc1cn[nH]c1-c1ccc(C#N)cc1 [Compound 17] | 5.52 to 6.00
6 | CNCCN(C)Cc1cn[nH]c1-c1cc(F)cc(F)c1 [Compound 18] | 6.00 to 7.00
7 | CCCc1ccc(-c2n[nH]cc2CN(C)CCNC)cc1 [Compound 20] | 6.00 to 7.00
8 | CNCCN(C)Cc1c[nH]nc1-c1cccc([N+](=O)[O-])c1 [Compound 21] | 5.52 to 6.00
9 | CNCCN(C)Cc1c[nH]nc1-c1cccc(C#N)c1 [Compound 22] | 5.52 to 6.00
10 | CNCCN(C)Cc1c[nH]nc1-c1ccccc1OC [Compound 23] | 5.52 to 6.00
11 | CNCCN(C)Cc1c[nH]nc1-c1cccc(OC)c1 [Compound 24] | 5.52 to 6.00
12 | CNCCN(C)Cc1c[nH]nc1-c1ccc(OC)cc1 [Compound 25] | 5.52 to 6.00
13 | CNCCN(C)Cc1c[nH]nc1-c1cccc(O)c1 [Compound 26] | 5.52 to 6.00
14 | CNCCN(C)Cc1c[nH]nc1-c1ccc(O)cc1 [Compound 27] | 5.52 to 6.00
15 | CNCCN(C)Cc1c[nH]nc1-c1ccc(CO)cc1 [Compound 28] | 6.00 to 7.00
16 | CNCCN(C)Cc1c[nH]nc1-c1ccc(C)cc1C [Compound 29] | 5.00 to 5.52
17 | CNCCN(C)Cc1cn(CCCC(O)CO)nc1-c1ccc(F)cc1 (centres unmarked) [Compound 30] | 5.00 to 5.52
18 | CNCCN(C)Cc1cnn(CCCC(O)CO)c1-c1ccc(F)cc1 (centres unmarked) [Compound 31] | 5.52 to 6.00
19 | CNCCN(C)Cc1c[nH]nc1-c1ccc(N)cc1 [Compound 33] | 5.52 to 6.00
20 | CNCCN(C)Cc1c[nH]nc1-c1ccc(Oc2ccccc2)cc1 [Compound 37] | > 7.00
21 | CNCCN(C)Cc1c[nH]nc1-c1ccccc1C(F)(F)F [Compound 38] | < 5.00
22 | CNCCN(C)Cc1c[nH]nc1-c1ccccc1OC(F)(F)F [Compound 40] | < 5.00

Row | SMILES | pIC50
23 | CCNC(=O)c1cccc(-c2n[nH]cc2CN(C)CCNC)c1 [Compound 43] | 5.00 to 5.52
24 | CCn1cc(CN(C)CCNC)c(-c2ccc(OC(C)C)cc2)n1 [Compound 213] | 6.00 to 7.00
25 | CNCCN(C)Cc1cn(C2CCCC2)nc1-c1ccc(OC(C)C)cc1 [Compound 214] | 6.00 to 7.00
26 | CNCCN(C)Cc1cn(C2CCOC2)nc1-c1ccc(OC(C)C)cc1 (centres unmarked) [Compound 215] | 6.00 to 7.00
27 | CNCCN(C)Cc1cnn(C2CCOC2)c1-c1ccc(OC(C)C)cc1 (centres unmarked) [Compound 216] | 6.00 to 7.00
28 | CNCCN(C)Cc1cn(Cc2ccccc2)nc1-c1ccc(OC(C)C)cc1 [Compound 217] | 6.00 to 7.00
29 | C=CCn1cc(CN(C)CCNC)c(-c2ccc(OC(C)C)cc2)n1 [Compound 218] | 6.00 to 7.00
30 | C=CCn1ncc(CN(C)CCNC)c1-c1ccc(OC(C)C)cc1 [Compound 219] | 6.00 to 7.00
31 | CNCCN(C)Cc1cn(C)nc1-c1ccc(OC(C)C)cc1 [Compound 243, N1-((3-(4-isopropoxyphenyl)-1-methyl-1H-pyrazol-4-yl)methyl)-N1,N2-dimethylethane-1,2-diamine] | 6.00 to 7.00
32 | CNCCN(C)Cc1cn(Cc2cccnc2)nc1-c1ccc(OC(C)C)cc1 [Compound 246] | 5.52 to 6.00
33 | CNCCN(C)Cc1cn(Cc2ccccn2)nc1-c1ccc(OC(C)C)cc1 [Compound 247] | 5.52 to 6.00
34 | CNCCN(C)Cc1cn(CC(=O)OC)nc1-c1ccc(OC(C)C)cc1 [Compound 248] | 5.00 to 5.52
35 | CNCCN(C)Cc1cnn(CC(=O)OC)c1-c1ccc(OC(C)C)cc1 [Compound 249] | 5.00 to 5.52
36 | CNCCN(C)Cc1cn(CC(=O)O)nc1-c1ccc(OC(C)C)cc1 [Compound 250] | < 5.00
37 | CNCCN(C)Cc1cn(CC(N)=O)nc1-c1ccc(OC(C)C)cc1 [Compound 251] | 5.52 to 6.00
38 | CCn1ncc(CN(C)CCNC)c1-c1ccc(OC(C)C)cc1 [Compound 252] | 6.00 to 7.00
39 | CNCCN(C)Cc1cn(CCOC)nc1-c1ccc(OC(C)C)cc1 [Compound 253, N1-((3-(4-isopropoxyphenyl)-1-(2-methoxyethyl)-1H-pyrazol-4-yl)methyl)-N1,N2-dimethylethane-1,2-diamine hydrochloride] | 5.52 to 6.00
40 | CNCCN(C)Cc1cn(C2CCC2)nc1-c1ccc(OC(C)C)cc1 [Compound 254, N1-((1-cyclobutyl-3-(4-isopropoxyphenyl)-1H-pyrazol-4-yl)methyl)-N1,N2-dimethylethane-1,2-diamine hydrochloride] | 6.00 to 7.00
41 | CNCCN(C)Cc1cnn(C2CCCC2)c1-c1ccc(OC(C)C)cc1 [Compound 255] | 5.52 to 6.00
42 | CNCCN(C)Cc1cn(C2CCCCC2)nc1-c1ccc(OC(C)C)cc1 [Compound 256] | 6.00 to 7.00
43 | C=C(C)C(=O)Nc1cccc(-c2[nH]ncc2CN(C)CCNC)c1 [Compound 257] | < 5.00
44 | C=CC(=O)Nc1cccc(-c2[nH]ncc2CN(C)CCNC)c1 [Compound 258] | 5.52 to 6.00
